# Results: patent US11273154B2, “Azole compounds as ubiquitin-specific protease USP7 inhibitors” (PROGENRA, INC., priority 2017, dated 2022)
# Assays:
# Type in all cases: cell-based
# Murine Tregs = experiment: Treg suppression assay with CFSE labeled T effector cells (FACS); settings: Murine Tregs pre-treated for 2 hours, washed, incubated with CFSE labeled T effector cells for 3 days; FIG. 6
# Procedure: Murine Tregs were pre-treated with compound 1 for 2 hours, washed and incubated with carboxyfluorescein succinimidyl ester (CFSE) labeled T effector cells at varying concentrations for 3 days. T effector cell proliferation was monitored using FACS analysis. Percentage proliferation is plotted using Graphpad prism.
# USP7 = target: T1, USP7 (Homo sapiens, UniProt Q93009); experiment: DUB activity of USP7 immunoprecipitated from pulse-treated Jurkat cells (Ub-EKL assay); settings: Jurkat cells pulse treated with 10 μM-0.1 μM for 2 hours, FIG. 4A-4B
# T1 construct: followed by DUB activity measurement of immunoprecipitated USP7; endogenous in cells; host or cells: Jurkat cells
# Procedure: Jurkat cells were pulse treated with doses ranging from 10 μM-0.1 μM of compound 1 or DMSO as vehicle control for 2 hours followed by DUB activity measurement of immunoprecipitated USP7 (FIG. 4A) as well as total cell lysate (FIG. 4B) using Ub-EKL assay (U.S. Pat. No. 8,680,139). A portion of the immunoprecipitated USP7 is separated on 10% SDS-PAGE and immunoblotted with anti-USP7 antibody to detect the level of USP7 protein (shown at the top of graphs in FIG. 4A).
# DNMT1, UHRF1 and HDM2 = experiment: Immunoblot of USP7 oncogenic substrate levels in Jurkat cells; settings: 20 μg total cell lysate, FIG. 5
# Procedure: FIG. 5 graphically illustrates a decrease in USP7 oncogenic substrates DNMT1, UHRF1 and HDM2 levels in Jurkat cells treated with the USP7i compound 1. 20 μg total cell lysates from each sample was separated on 10% SDS-PAGE and immunoblotted with antibodies against DNMT1, UHRF1, HDM2 and Actin (loading control).
# T1 sequence (Q93009 whole entry): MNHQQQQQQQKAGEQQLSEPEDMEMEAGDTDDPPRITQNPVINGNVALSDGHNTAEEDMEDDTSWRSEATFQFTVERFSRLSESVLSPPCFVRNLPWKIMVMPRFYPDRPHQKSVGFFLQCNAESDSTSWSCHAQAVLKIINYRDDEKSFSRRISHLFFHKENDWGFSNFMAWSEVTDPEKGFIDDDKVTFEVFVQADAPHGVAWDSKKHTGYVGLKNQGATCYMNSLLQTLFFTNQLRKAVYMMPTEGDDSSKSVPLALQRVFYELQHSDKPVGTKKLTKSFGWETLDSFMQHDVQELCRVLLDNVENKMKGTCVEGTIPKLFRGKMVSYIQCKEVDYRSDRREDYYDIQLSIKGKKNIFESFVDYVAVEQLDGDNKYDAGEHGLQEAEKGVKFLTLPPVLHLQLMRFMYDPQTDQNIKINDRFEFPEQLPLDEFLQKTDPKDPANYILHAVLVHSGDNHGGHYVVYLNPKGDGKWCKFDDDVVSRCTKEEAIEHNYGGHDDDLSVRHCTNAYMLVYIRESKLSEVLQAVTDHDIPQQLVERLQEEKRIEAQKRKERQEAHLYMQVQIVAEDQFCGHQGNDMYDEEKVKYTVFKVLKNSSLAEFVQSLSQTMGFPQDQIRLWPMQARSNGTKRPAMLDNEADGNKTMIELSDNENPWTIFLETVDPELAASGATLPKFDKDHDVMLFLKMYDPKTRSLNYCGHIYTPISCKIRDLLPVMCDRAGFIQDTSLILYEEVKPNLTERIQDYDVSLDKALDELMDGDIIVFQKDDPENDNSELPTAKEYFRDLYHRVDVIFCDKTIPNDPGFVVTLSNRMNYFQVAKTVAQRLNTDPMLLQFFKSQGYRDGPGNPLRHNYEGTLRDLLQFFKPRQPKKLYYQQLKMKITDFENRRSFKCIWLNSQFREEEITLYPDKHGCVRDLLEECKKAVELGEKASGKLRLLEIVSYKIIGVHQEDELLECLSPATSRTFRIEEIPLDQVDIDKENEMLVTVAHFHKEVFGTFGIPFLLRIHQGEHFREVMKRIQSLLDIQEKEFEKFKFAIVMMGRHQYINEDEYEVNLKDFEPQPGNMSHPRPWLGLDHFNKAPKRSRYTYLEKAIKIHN
structure (smiles),measurement,setting,value
"O=C(Nc1ccc2c(c1)S(=O)(=O)C=C2)c1nnc(Sc2c(Cl)cncc2Cl)s1 [compound 1, 5-((3,5-dichloropyridin-4-yl)thio)-N-(1,1-dioxido-2,3-benzo[b]thiophen-6-yl)-1,3,4-thiadiazole-2-carboxamide]",Treg functions (T effector cell proliferation),Murine Tregs,inhibition of Treg functions
same,mode of USP7 inhibition (DUB activity of immunoprecipitated USP7 after pulse treatment),USP7,irreversible inhibitors
same,"USP7 oncogenic substrates DNMT1, UHRF1 and HDM2 levels","DNMT1, UHRF1 and HDM2",decrease
